Assay results from article PMC6982167, “Development of an Improved Peroxidase-Based High-Throughput Screening for the Optimization of D-Glycerate Dehydratase Activity” (International Journal of Molecular Sciences, 2020).

Tests used:
[1] = target: T1, SsDHAD (dihydroxyacid dehydratase from Sulfolobus solfataricus) (Saccharolobus solfataricus, UniProt Q97UB2); assay: discontinuous dehydration assay, HPLC (2-keto-3-deoxygluconate); format: biochemical; conditions: 20 mM D-gluconate, 50 °C, 60 min
T1 construct: gene ilvD; full-length synthetic gene in pET24a(+) via NdeI/XhoI, reverse primer carries stop codon (no tag); E. coli BL21(DE3); heat step 70 °C with 2-mercaptoethanol, desalted; iron-sulfur cluster

[2] = target: T1, SsDHAD (dihydroxyacid dehydratase from Sulfolobus solfataricus); assay: discontinuous dehydration assay, pyruvate by HPLC; format: biochemical; conditions: supplied as D/L-glycerate 40 mM, pH 7.0, 50 °C, 60 min

T1 sequence (Q97UB2 whole entry): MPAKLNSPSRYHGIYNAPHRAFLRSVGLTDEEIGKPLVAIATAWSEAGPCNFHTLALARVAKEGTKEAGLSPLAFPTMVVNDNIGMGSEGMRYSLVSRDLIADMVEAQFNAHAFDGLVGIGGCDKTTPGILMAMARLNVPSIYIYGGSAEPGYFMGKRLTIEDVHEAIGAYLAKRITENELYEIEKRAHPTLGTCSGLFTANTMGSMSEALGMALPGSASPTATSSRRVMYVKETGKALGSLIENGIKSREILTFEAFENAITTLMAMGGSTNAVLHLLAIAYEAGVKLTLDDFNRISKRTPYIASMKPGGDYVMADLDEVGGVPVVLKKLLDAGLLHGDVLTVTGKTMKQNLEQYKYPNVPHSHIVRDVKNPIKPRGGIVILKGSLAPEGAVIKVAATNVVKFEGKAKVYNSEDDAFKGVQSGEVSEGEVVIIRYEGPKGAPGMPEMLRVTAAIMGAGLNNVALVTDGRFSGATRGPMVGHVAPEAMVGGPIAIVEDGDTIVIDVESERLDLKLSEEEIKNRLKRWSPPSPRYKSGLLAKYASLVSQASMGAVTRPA

O=C(O)[C@H](O)[C@@H](O)[C@H](O)[C@H](O)CO [D-gluconate]
specific activity [1]: we also tested the conversion of D-gluconate to 2-keto-deoxy gluconate

O=C(O)[C@H](O)CO [D-glycerate]
specific activity [2]: wildtype showed an activity for the dehydration of D-glycerate
